From patent US20120283203A1, “METHODS AND COMPOSITIONS FOR THE TREATMENT OF OBESITY, INSULIN RELATED DISEASES AND HYPERCHOLESTEROLEMIA” (Board of Trustees of Michigan State University, priority 2005, published 2012)
Values joined by “and” are separate entries in the source; they are usually repeats but may differ in a detail not shown here. Identical values can stand only once. “Also recorded” adds a separate entry of the source.

Key:
[1] = Body weight of C57BL/6J mice on high fat diet, 12-week feeding study; format: in vivo; conditions: for weight gain during the treatment period: 8 weeks of treatment in high fat diet, high fat control 9.76 g; for overall weight gain during the experimental period: 12 weeks, high fat control 18.98 g; for weight loss: compared to the high fat diet controls; for body weight: high fat diet with compound, high fat control 36.91 g, normal diet 31.5 g
Description: Animals and Diet: Male C57BL/6J mice, 4 weeks old, were purchased from Jackson Laboratories (Bar Harbor, Me., USA). The mice were individually housed under controlled temperature (70° F.) and 12 h light-dark cycles. The mice (n=40) had free access to water and laboratory non-purified diet for 5 days. After acclimatization, the mice were randomly divided into groups 1-5 (n=8) for the study. The experiments were carried out according to the ethical guidelines of University Laboratory Animal Resources (ULAR) at Michigan State University, East Lansing, Mich. The diets, 10% K. Cal. (normal) and 60% K. Cal. (high fat), were purchased from Research Diets (New Brunswick, N.J.). The controls were groups 1 and 2 and received normal (10% K. Cal.) and high fat (60% K. Cal.) diets, respectively, throughout the study. The food was prepared for each treatment separately by mixing 1 g of pure anthocyanin mixture, 500 mg each of betulinic and ursolic acids per kilogram high fat diet. The treatment groups, 3-5, were fed initially for 4 weeks with the high fat diet and then switched to the diet containing anthocyanins, betulinic acid or ursolic acids. Food was changed at intervals of three days to avoid oxidation of the fat or compounds. The daily food intake (FIG. 1) and the weekly body weight for each animal were determined throughout the study (FIG. 2A-C).

[2] = for plasma insulin level: end of feeding, controls 0.47 and 0.41 ng/mL
Description: Collection of serum, liver and adipose tissue. The feeding was terminated after 12 weeks. The animals were then anesthetized by using isoflurane, sacrificed and blood was collected by cardiac puncture in heparinized tubes. The plasma was separated by centrifugation at 1600×g for 10 min at 4° C., frozen immediately and stored at −20° C. until use. […] All tissues were then transferred from liquid nitrogen and stored at −80° C. until analyses.
Radio Immuno Assay (RIA). The plasma insulin levels were measured by rat insulin RIA kit purchased from LINCO Research Inc. (St. Charles, Mo.). The insulin standards (100 aliquots) were pipetted to 12×75 mm test tubes. A total of 10 concentrations of insulin, ranging from 0.1-10 ng/mL, were used to determine the standard curve. The plasma samples (aliquots of 1-25 μl) were added to test tubes and the assay buffer was added to attain a total sample volume of 100 μl. The ^125I labeled insulin and anti rat insulin antibody (100 μL each) were added to the tubes, mixed and incubated at 4° C. After 24 h, the precipitating reagent (1 mL) was added and incubated again at 4° C. for 20 min to precipitate the insulin bound to the antibody. The tubes were then centrifuged for 20 min at 3000 g, decanted and the radioactivity was measured using a gamma counter.

[3] = Total plasma cholesterol at end of feeding study; format: in vivo, C57BL/6J mice; conditions: high fat control 156.4, normal diet 120.5
Description: Collection of serum, liver and adipose tissue. The feeding was terminated after 12 weeks.
Determination of Plasma Cholesterol: The total plasma cholesterol was analyzed by Clinical Pathology Laboratory at the Diagnostic Center for Population and Animal Health, College of Veterinary Medicine, Michigan State University according to the established standard analytical protocol for total cholesterol.

[4] = Glucose tolerance test (i.p. glucose 2 g/kg) in high fat diet fed mice; format: in vivo, C57BL/6J mice; conditions: for blood glucose level after 90 min of glucose load: 90 min after 2 g/kg i.p. glucose, high fat control 363, normal diet 190
Description: Glucose Tolerance Test (GTT). The glucose tolerance test was performed on five animals from each group (n=5) after 6 weeks of supplementation. The blood glucose level was measured at time 0 (min) with a Free Style Flash (TheraSense, Inc., CA) handheld glucometer using the test strips (Free Style, TheraSense, Inc., CA). For GTT, a sterile solution containing 2 g of glucose per kg body weight was injected intraperitoneally (i.p.). The tail vein blood was collected and glucose levels measured at 5, 10, 15, 30, 60, and 90 min, respectively. The blood glucose levels were plotted against the time (FIG. 3).

INS-1 832/13 cells = experiment: Insulin secretion by INS-1 832/13 pancreatic beta cells (RIA, normalized to cellular protein); format: cell-based, rodent; conditions: for increase in insulin secretion: increase over untreated cells; for fold increase in insulin secretion: vs untreated cells
Description: Insulin Secretion Studies. INS-1 832/13 cells (kindly provided by Dr Christopher Newgard, Duke University, N.C.) were routinely cultured in 5% CO2/air at 37° C. in RPMI-1640 medium containing 11.1 mM glucose and supplemented with 10% FBS (Fetal Bovine Serum), 10 mM HEPES, 100 U/ml penicillin, […] streptomycin, 4 mM Glutamine, 1 mM sodium pyruvate, and 50 μM 2-mercaptoethanol. Cells were passed weekly after trypsin-EDTA detachment. For static secretion studies, cells were plated on 24 well plates at a density of 0.64×10^6 cells per well and grown for 24 h. The cells were then cultured for an additional 24 h in RPMI-1640 containing 4 mM glucose and the supplements described above. Cells were then incubated twice for 30 min in Krebs Ringer Bicarbonate buffer (KRBB) containing 4 mM glucose and 0.1% BSA. Cells were rapidly washed with KRBB and incubated for 60 min KRBB containing 4 or 10 mM glucose with or without the indicated anthocyanins or anthocyanidins. The medium was then removed for determining insulin release. The cells were then washed twice with PBS and dissolved in 1 M NaOH. Cellular protein concentration was then determined by Lowry assay. Anthocyanins and anthocyanidins were dissolved in DMSO to obtain desired concentrations. Final concentration of DMSO was 0.1%. The insulin secreted into the medium by the cells was determined by radioimmuno assay and normalized to total cellular protein.
Radio Immuno Assay (RIA). The Kit for RIA was purchased from LINCO Research Inc. (St Charles, Mo.), and the assay was conducted according to the manufacturer's directions. Briefly, 0.1-10 ng of insulin standards (100 μl) were added to 12×75 mm test tubes. Similarly, samples (25 μl) from the insulin secretion studies were also added to the test tubes. To this, an aliquot (75 μl) of assay buffer was added. The ^125I labeled insulin (100 μl) was then added to each test tube. […] The tubes were then centrifuged and the radioactivity was measured using a gamma counter.
Lowry protein Assay. The amount of protein in the assay wells was determined by Lowry method. The Lowry assay solution was prepared by combining the Lowry solution, CuSO4.5H2O (1%), and sodium tartarate (1%). Briefly, the protein sample (100 μl) and Lowry mixture (1 mL) were mixed in a test tube (12×75). The Folin-Ciolatues reagent (100 μl) was added to these tubes, mixed, and incubated for 30 min at room temperature. The optical density of resulting solutions was read at 700 nm using a UV spectrophotometer.

[5] = 4 and 10 mM glucose, or glucose level not specified

C=C(C)[C@@H]1CC[C@]2(C(=O)O)CC[C@]3(C)[C@H](CC[C@@H]4[C@@]5(C)CC[C@H](O)C(C)(C)[C@@H]5CC[C@]43C)[C@@H]12 [betulinic acid]
weight gain during the treatment period [1]: 7.73 ± 0.44 g
weight gain during the treatment period ([1]; listed as 2 (group 4)): 7.73 g
overall weight gain during the experimental period [1]: 15.16 g
weight loss [1]: 21%
body weight [1]: 33.54 g
plasma insulin level [2]: 460 ± 93.68 ng/mL and 460.86 ± 193.68 ng/mL
plasma cholesterol level [3]: 126.5 ± 14.01 mg/dL
blood glucose level after 90 min of glucose load [4]: 317.8 ± 21.9 mg/dL
blood glucose level at zero time ([4]; before glucose load, high fat control 119.8): 123.4 ± 6.0 mg/dL

OC[C@H]1O[C@@H](Oc2cc3c(O)cc(O)cc3[o+]c2-c2ccc(O)c(O)c2)[C@H](O)[C@@H](O)[C@H]1O [cyanidin-3-galactoside]
effect on insulin secretion (in words) (INS-1 832/13 cells; 4 mM glucose): did not increase the insulin secretion
increase in insulin secretion (INS-1 832/13 cells; 10 mM glucose, 50 μg/mL): 17 ng/mg of protein
fold increase in insulin secretion (INS-1 832/13 cells; 10 mM glucose, 50 μg/mL): 1.2 fold
effect on insulin secretion (in words) (INS-1 832/13 cells; [5]): significant increase in insulin secretion

OC[C@H]1O[C@@H](Oc2cc3c(O)cc(O)cc3[o+]c2-c2ccc(O)c(O)c2)[C@H](O)[C@@H](O)[C@@H]1O [cyanidin-3-glucoside]
effect on insulin secretion (in words) (INS-1 832/13 cells; 4 mM glucose): less active than delphinidin-3-glucoside
insulin secreted (INS-1 832/13 cells; 4 mM glucose, 5 μg/mL, untreated cells 33): 46 ng of insulin per mg protein
increase in insulin secretion (INS-1 832/13 cells; 4 mM glucose, 50 μg/mL): 9 ng/mg of protein
fold increase in insulin secretion (INS-1 832/13 cells; 4 mM glucose, 50 μg/mL): 1.3 fold
dose dependent insulin secretion (in words) (INS-1 832/13 cells; 4 mM glucose, 10, 50, 100 and 250 μg/mL): no significant difference in insulin secretion
effect on insulin secretion (in words) (INS-1 832/13 cells; 10 mM glucose): more active
insulin secreted (INS-1 832/13 cells; 10 mM glucose, 50 μg/mL): 119 ng/mg protein
fold increase in insulin secretion (INS-1 832/13 cells; 10 mM glucose, 50 μg/mL): 1.43 fold
effect on insulin secretion (in words) (INS-1 832/13 cells; [5]): most effective insulin secretagogues

Oc1cc(O)c2cc(O)c(-c3ccc(O)c(O)c3)[o+]c2c1 [cyanidin]
insulin secreted (INS-1 832/13 cells; 4 mM glucose, 50 μg/mL): 29 ng/mg of protein
fold increase in insulin secretion (INS-1 832/13 cells; 4 mM glucose, 50 μg/mL): 1.5 fold
insulin secreted (INS-1 832/13 cells; 10 mM glucose, 50 μg/mL): 88 ng/mg protein

OC[C@H]1O[C@@H](Oc2cc3c(O)cc(O)cc3[o+]c2-c2cc(O)c(O)c(O)c2)[C@H](O)[C@@H](O)[C@@H]1O [delphinidin-3-glucoside]
insulin secreted (INS-1 832/13 cells; 4 mM glucose, 50 μg/mL): 49 ng/mg of protein
fold increase in insulin secretion (INS-1 832/13 cells; 4 mM glucose, 50 μg/mL): 1.8 fold
insulin secreted (INS-1 832/13 cells; 10 mM glucose, 50 μg/mL): 113 ng/mg protein
fold increase in insulin secretion (INS-1 832/13 cells; 10 mM glucose, 50 μg/mL): 1.4 fold
effect on insulin secretion (in words) (INS-1 832/13 cells; [5]): most effective insulin secretagogues; also recorded: significantly induced the insulin secretion
effect on insulin secretion (in words) (INS-1 832/13 cells; 4 and 10 mM glucose, or glucose level not specified, listed as Delphinidin-3-glucoside): most active anthocyanin tested

Oc1cc(O)c2cc(O)c(-c3cc(O)c(O)c(O)c3)[o+]c2c1 [delphinidin]
increase in insulin secretion (INS-1 832/13 cells; 4 mM glucose, 50 μg/mL): 6 ng/mg of protein

OCC1OC(Oc2cc3c(O)cc(O)cc3[o+]c2-c2ccc(O)cc2)C(O)C(O)C1O (stereo not shown) [pelargonidin-3-galactoside]
effect on insulin secretion (in words) (INS-1 832/13 cells; 4 mM glucose): did not increase the insulin secretion
effect on insulin secretion (in words) (INS-1 832/13 cells; [5]): did not induce insulin secretion

Oc1ccc(-c2[o+]c3cc(O)cc(O)c3cc2O)cc1 [pelargonidin]
insulin secreted (INS-1 832/13 cells; 4 mM glucose, 50 μg/mL): 49 ng/mg of protein
fold increase in insulin secretion (INS-1 832/13 cells; 4 mM glucose, 50 μg/mL): 1.4 fold
insulin secreted (INS-1 832/13 cells; 10 mM glucose, 50 μg/mL): 91 ng/mg protein
fold increase in insulin secretion (INS-1 832/13 cells; 10 mM glucose, 50 μg/mL): 1.2 fold

COc1cc(-c2[o+]c3cc(O)cc(O)c3cc2O)cc(O)c1O [petunidin]
increase in insulin secretion (INS-1 832/13 cells; 4 mM glucose, 50 μg/mL): 4 ng/mg of protein

C[C@H]1[C@H](C)CC[C@]2(C(=O)O)CC[C@]3(C)C(=CC[C@@H]4[C@@]5(C)CC[C@H](O)C(C)(C)[C@@H]5CC[C@]43C)[C@H]12 [ursolic acid]
weight gain during the treatment period ([1]; listed as 3 (group 5)): 8.78 g
overall weight gain during the experimental period [1]: 17.45 g
effect on body weight (in words) ([1]; compared to high fat diet control): did not decrease bodyweight of the treated animals significantly
weight loss [1]: not significant
body weight [1]: 34.89 g
plasma insulin level [2]: 52.25 ± 8.84 ng/mL and 52.25 ± 18.84 ng/mL
blood glucose level after 90 min of glucose load [4]: 227 ± 22.982 mg/dL
time at which blood glucose concentration reached the maximum ([4]; after glucose injection): 60 min
glucose tolerance / insulin resistance (in words) ([4]; high fat diet fed mice): corrected glucose levels similar to control group animals fed on normal diet; also recorded: overcame the insulin resistance; also recorded: glucose absorption was slow

anthocyanins
hypoglycemia ([2]; mouse, in vivo): without causing hypoglycemia
